Test results as given in US7767817B2, “Water soluble boronic acid fluorescent reporter compounds and methods of use thereof” (priority 2003, dated 2010).
Like-named read-outs stand apart in the source and are kept apart here.

Key:
[1] = Fluorescence intensity pH profile (apparent pKa); type: physicochemical
Excerpt: Since the fluorescence intensity increase upon binding with a sugar seems to be a general phenomenon, the fluorescence change mechanism of compound 5 at pH 7.4 was investigated. For this purpose, the fluorescence pH profiles of both compound 5 alone and compound 5 in the presence of fructose (0.5 M) were studied. The fluorescence intensity of 5 at 334 nm in the absence of sugars decreased upon changing the pH from 3 to 12 (FIG. 3). An apparent pKa of 7.0 was observed, which is assigned to the boronic acid moiety. […] It is well-known that the binding of a diol to boronic acid often lowers the pKa of the boron species) (Springsteen, G.; Wang, B. Tetrahedron 2002, 58, 5291-5300). Therefore, the pKa, which drops from 7.0 to 4.0, can also be reasonably assigned to boron. […] It seems that the fluorescence intensity change of compound 5 is also due to diol's perturbation as that of 8-quinolineboronic acid.
To examine the relationship between the fluorescence intensity changes and the boron ionization states, the pH profile of the fluorescence intensity in the absence and presence of fructose and glucose at a fixed concentration (50 mM) was also studied (FIG. 6). […] It is worth mentioning that the pKa of the protonated dimethyl amino group of 1 is […] the emission wavelength of 1 with the protonated dimethyl amino group at low pH is about 238 nm. Therefore, the fluorescence intensity of 1 at 445 nm was not affected by the protonated dimethyl amino group. The fluorescence intensity changes correspond to the boronic acid pKa (9.4) and therefore hybridization changes, which was responsible for the fluorescence intensity changes observed.
Since the fluorescence intensity increase upon binding with a sugar seems to be a general phenomenon, next the conditions under which optimal fluorescence intensity changes are observed upon addition of a sugar was investigated. For this purpose, the fluorescence pH profiles of both compound 6 alone and in the presence of fructose (0.5 M) were studied. The fluorescence intensity of 6 in the absence of sugars increased by 17-fold upon changing the pH from 3 to 12 (FIG. 10). […] Furthermore, one would expect the pKa values of the other two ionizable groups, the carboxylic acid and the quinolinium groups, to be less than 7. Therefore, assigning the pKa at 7.9 to the boronic acid moiety is the most reasonable option. […] It is well-known that the binding of a diol to boronic acid often lowers the pKa of the boron species. […] Upon addition of fructose, the pKa of the boron drops to about 5.2, which ensures that most of the boron species are in the anionic tetrahedral state at physiological pH.
Since the fluorescence intensity increase upon binding with a sugar seems to be a general phenomenon, the use of 5-QBA functions as a fluorescent probe for diols was investigated. The fluorescence pH profiles of both 5-QBA alone and 5-QBA in the presence of D-fructose (0.5 M) were investigated. […] In order to assign each pKa, the ^11B NMR spectra of 5-QBA and its ester in a mixed deuterated methanol-water (1:1) solvent at different pH were obtained. Methanol was used so that the concentration of 5-QBA can be increased to 57 mM so as to allow for a meaningful NMR determination within a reasonable period of time.
To understand the structural features associated with the fluorescence intensity changes, we studied the pH profiles of the fluorescence intensity in the absence (FIG. 18) and presence of fructose and glucose at a fixed concentration (50 mM). […] The fluorescence intensity at 513 nm increased very quickly when pH increased from 1.78 to 7.04 (thin lines in FIG. 18), and then decreased in the pH range of 7.04-10.54 (thick lines in FIG. 18).

[2] = Fluorescence binding study with glucose
Method: (§1) For a typical sugar-BTBA fluorescent measurement, a 1.0×10^−5 M stock solution of BTBA in 0.10 M phosphate buffer at pH 7.4 was made as solution A. […] Solution B was titrated into solution A in order to make mixtures with a constant concentration of BTBA and a range of concentrations of the sugar. Each mixture was allowed to stand for at least 10 min, then 3.0 mL of the mixture was transferred into a cuvette for fluorescence measurement.
(§2) The association constants (Ka) were determined according to the method III in Valeur's publication (J. Phys. Chem. 1988, 92, 6233).

[3] = Fluorescence quantum yield; type: physicochemical
Method: The effect of various carbohydrates on the fluorescent properties of compound 1 was determined in phosphate buffer at pH 7.4. The emission spectral change of 1 with fructose at different concentrations in 0.1 M aqueous phosphate buffer (pH 7.4) is shown in FIG. 4. A 41-fold emission intensity increase is observed in presence of 50 mM fructose. To the best of our knowledge, such a large emission intensity increase has never been reported for boronic acid-based saccharide sensors involving the ICT mechanism. The quantum yields of 1 in the absence (φF=0.010) and in the presence of 50 mM fructose (φF=0.42) in 0.1 M phosphate buffer (pH 7.4) were obtained using 8-quinoline boronic acid (φF=0.58 in 12 M H2SO4) as a reference compound.
For example, addition of fructose (50 mM) to the solution of 7 induced a 36-fold fluorescence intensity increase at 433 nm and a 0.55-fold fluorescence intensity decrease at 513 nm (FIG. 14). […] To the best of our knowledge, such large emission intensity changes at two wavelengths have never been reported for boronic acid-based saccharide sensors. The quantum yields (φF) of 7 were determined as 0.07 at 513 nm in 0.1 M phosphate buffer (pH 7.4) in the absence of a sugar and 0.23 at 433 nm in the presence of 50 mM of fructose, using 8-quinoline boronic acid (φF=0.58 in 12 M H2SO4) as a reference compound.

[4] = Fluorescence binding study with galactose
Method: as §1, §2

[5] = Fluorescence binding study with sorbitol
Method: as §1, §2

[6] = Fluorescence binding study with fructose
Method: as §1, §2

[7] = Stability noted at isolation; type: physicochemical; conditions: after TFA deprotection, no further purification
Method: (7). To a solution of 6 (0.2501 g, 0.79 mmol) in DCM (20 mL) was added TFA (5 mL). The solution was stirred for 1 h, and then concentrated in vacuum to give a yellow oil.

[8] = Fluorescence binding study with tagatose
Method: as §1, §2

[9] = 0.1 M phosphate buffer pH 7.4, 1:1 complex assumed
[10] = glucose 1.0 M, pH 7.4, λex 300 nm
[11] = galactose 0.50 M, pH 7.4, λex 300 nm
[12] = fructose 0.05 M, pH 7.4, λex 300 nm
[13] = tagatose 0.05 M, pH 7.4, λex 300 nm

CN(C)c1cccc2c(B(O)O)cccc12 [Compound 7, 5-(Dimethylamino)-naphthalene-1-boronic acid]
pKa ([1]; 0.1 M aqueous phosphate buffer with 50 mM glucose, presence of glucose, intensity at 335 nm, read-out: first apparent pKa (aniline group)): 5.1 | pKa ([1]; 0.1 M aqueous phosphate buffer, compound alone, intensity at 335 nm, read-out: first apparent pKa (aniline group)): 5.1 | pKa ([1]; 0.1 M phosphate buffer, absence of sugar, 0.1 M phosphate buffer, read-out: apparent pKa assigned to the boronic acid moiety): ~9 | Association constant (Ka) with glucose [2, 9]: 3.6 ± 0.1 M⁻¹ | fluorescence intensity change ΔI/I0 at 433 nm [2, 10]: 23 (1.0) | fluorescence intensity change ΔI/I0 at 513 nm [2, 10]: −0.54 (1.0) | maximum fluorescence intensity increase at 433 nm ([2]; glucose 1 M, physiological pH): 23 fold | quantum yield φF at 513 nm ([3]; absence of a sugar, 0.1 M phosphate buffer pH 7.4): 0.07 | quantum yield φF at 433 nm ([3]; presence of 50 mM fructose): 0.23 | melting point: 95 to 96 °C | Association constant (Ka) with galactose [4, 9]: 23.0 ± 0.2 M⁻¹ | fluorescence intensity change ΔI/I0 at 433 nm [4, 11]: 36 (0.50) | fluorescence intensity change ΔI/I0 at 513 nm [4, 11]: −0.56 (0.50) | fluorescence intensity increase at 433 nm ([4]; galactose, physiological pH): about 36 fold | Association constant (Ka) with sorbitol [5, 9]: 337 ± 5 M⁻¹ | fluorescence intensity change ΔI/I0 at 513 nm ([5]; sorbitol 0.05 M, pH 7.4, λex 300 nm): −0.48 (0.05) | fluorescence intensity change ΔI/I0 at 433 nm ([5]; sorbitol 0.20 M, pH 7.4, λex 300 nm): 42 (0.20) | fluorescence intensity increase at 433 nm ([5]; sorbitol 200 mM, physiological pH): 42 fold | change of the ratio I433/I513 ([6]; 50 mM fructose versus no sugar): 84 fold | Association constant (Ka) with fructose [6, 9]: 311 ± 4 M⁻¹ | emission intensity ratio at 433 and 513 nm (I433/I513) ([6]; before addition of a sugar, pH 7.4): 0.11 | fluorescence intensity change ΔI/I0 at 433 nm [6, 12]: 36 (0.05) | fluorescence intensity change ΔI/I0 at 513 nm [6, 12]: −0.61 (0.05) | fluorescence intensity decrease at 513 nm ([6]; fructose 50 mM, phosphate buffer pH 7.4): 0.55 fold | emission intensity ratio at 433 and 513 nm (I433/I513) ([6]; upon addition of 0.1 mM fructose): 0.23 | stability [7]: not stable in neutral | Association constant (Ka) with tagatose [8, 9]: 229 ± 3 M⁻¹ | fluorescence intensity change ΔI/I0 at 433 nm [8, 13]: 37 (0.05) | fluorescence intensity change ΔI/I0 at 513 nm [8, 13]: −0.55 (0.05) | fluorescence intensity increase at 433 nm ([8]; tagatose, physiological pH): about 36 fold
